Assays:
[1] = Cyclic voltammetry (CV) in dichloromethane; format: physicochemical; conditions: n-BuN4PF6 0.1 M, silver/silver chloride reference electrode, 100 mV/sec
Description: (3) Measurement of CV (Cyclic Voltammetry)
CV was measured using dichloromethane as a solvent, tetrabutylammonium hexafluorophosphate (n-BuN4PF6, 0.1 M) as a supporting salt, platinum wires as a working electrode and a counter electrode, and a silver/sliver chloride electrode as a reference electrode, and sweeping the electric potential at a rate of 100 mV/sec.

[2] = Solubility to chloroform (saturated chloroform solutions); format: physicochemical; conditions: mass percent concentration of saturated chloroform solution
Description: (1) Measurement of Solubility
Solubility was measured using chloroform as a solvent.

Structure (SMILES): CCCCCCCCc1cc2c(cc(CCCCCCCC)c3cc(=C(C#N)C#N)sc32)c2sc(=C(C#N)C#N)cc12 [Compound 110]
- first half-wave reduction potential [1]: 0.15 V
- second half-wave reduction potential [1]: −0.14 V

Structure (SMILES): CCCCCCCCCCCCc1cc2c(cc(CCCCCCCCCCCC)c3cc(=C(C#N)C#N)sc32)c2sc(=C(C#N)C#N)cc12 [Compound 112]
- Solubility to Chloroform [2]: 0.20 w/w %
- first half-wave reduction potential [1]: 0.15 V
- second half-wave reduction potential [1]: −0.14 V

Structure (SMILES): CCCCCCCCCCCCCCCCc1cc2c(cc(CCCCCCCCCCCCCCCC)c3cc(=C(C#N)C#N)sc32)c2sc(=C(C#N)C#N)cc12 [Compound 114]
- first half-wave reduction potential [1]: 0.15 V
- second half-wave reduction potential [1]: −0.14 V

Structure (SMILES): CCCCC(CC)Cc1cc2c(cc(CC(CC)CCCC)c3cc(=C(C#N)C#N)sc32)c2sc(=C(C#N)C#N)cc12 (stereo not shown) [Compound 119]
- Solubility to Chloroform [2]: 0.53 w/w %
- first half-wave reduction potential [1]: 0.15 V
- second half-wave reduction potential [1]: −0.14 V
